These results are taken from ChEMBL document CHEMBL3603765, “Targeting Drug Resistance in EGFR with Covalent Inhibitors: A Structure-Based Design Approach” (J Med Chem, 2015).

Data set [1] deals with Proto-oncogene tyrosine-protein kinase Src (Homo sapiens, UniProt P12931). Description: Inhibition of wild type cSrc (251 to 533 residues) (unknown origin) pre-incubated for 30 mins before substrate and ATP addition by HTRF assay. (In TR-FRET formats the signal depends on donor and acceptor labels being close together.)
A short description of data set [2]: Growth inhibition of human PC9 cells with del1 deletion incubated for 96 hrs by cell-titer Glo reagent based assay. The class given is functional. The conditions noted are these: PC-9, 96 h.
The target of data set [3] is Proto-oncogene tyrosine-protein kinase Src (Homo sapiens, UniProt P12931, T341M). Description: Inhibition of cSrc T338M mutant (unknown origin) pre-incubated for 30 mins before substrate and ATP addition by HTRF assay.
In data set [4] the target is T1, Epidermal growth factor receptor (Homo sapiens, UniProt P00533, L858R/T790M).
For data set [5], the system named is NCI-H1975. Description: Growth inhibition of human NCI-H1975 cells expressing EGFR L858R/T790M mutant incubated for 96 hrs by cell-titer Glo reagent based assay. The format is functional. The conditions noted are these: NCI-H1975, 96 h.
Data set [6] deals with Proto-oncogene tyrosine-protein kinase Src (Homo sapiens, UniProt P12931, S348C/T341M). Put plainly: Inhibition of cSrc T338M/S345C mutant (unknown origin) pre-incubated for 30 mins before substrate and ATP addition by HTRF assay.
Data set [7] concerns the target Epidermal growth factor receptor (Homo sapiens, UniProt P00533). Put plainly: Inhibition of wild type EGFR (unknown origin) expressed in Sf9 cells pre-incubated for 30 mins before substrate and ATP addition by homogeneous time-resolved FRET assay.
A further data set has as its system A-431. Put plainly: Growth inhibition of human A431 cells incubated for 96 hrs by cell-titer Glo reagent based assay. The settings on record: A-431, 96 h. The format is functional.
In data set [8] the target is T2, Epidermal growth factor receptor (Homo sapiens, UniProt P00533, L858R).
A short description of data set [9]: Growth inhibition of human HCC827 cells with exon 19 deletion and delE746-A750 incubated for 96 hrs by cell-titer Glo reagent based assay. The format is functional. The conditions noted are these: HCC827, 96 h.
In data set [10] the test system is NCI-H1975. Description: Growth inhibition of human NCI-H1975 cells expressing EGFR L858R/T790M mutant at 30 um incubated for 96 hrs by cell-titer Glo reagent based assay. The class given is functional.
Another data set has as its system NCI-H661. Description: Growth inhibition of human NCI-H661 cells incubated for 96 hrs by cell-titer Glo reagent based assay. The settings on record: NCI-H661, 96 h. The class given is functional.
For data set [11], the system named is Epidermal growth factor receptor (Homo sapiens), P00533 [T790M]. Put plainly: Binding affinity to EGFR T790M mutant (unknown origin) expressed in Sf9 cells by ESI-MS method.
In data set [12] the test system is Epidermal growth factor receptor (Homo sapiens), P00533 [L858R,T790M]. Put plainly: Inhibition of EGFR L858R/T790M mutant (unknown origin) expressed in Sf9 cells assessed as enzyme inactivation constant by enzyme kinetics assay.
Data set [13] has as its system Epidermal growth factor receptor (Homo sapiens), P00533 [T790M]. Put plainly: Binding affinity to EGFR T790M mutant (unknown origin) expressed in Sf9 cells assessed as covalent modification at Cys797 residue nano-LC-MS/MS method.
For data set [14], the target named is T1, Epidermal growth factor receptor. Put plainly: Inhibition of EGFR L858R/T790M mutant (unknown origin) expressed in Sf9 cells by enzyme kinetics assay.
For data set [15], the target named is T2, Epidermal growth factor receptor. Put plainly: Inhibition of EGFR L858R mutant (unknown origin) expressed in Sf9 cells by enzyme kinetics assay.
A short description of data set [16]: Kinetic solubility in 50 mM Hepes buffer at pH 7.4. The format is physicochemical. The conditions noted are these: read-out: Kinetic_solubility.
Data set [17] in a line: Permeability of the compound after 16 hrs assessed as compound flux by PAMPA method. The format is physicochemical. Background: PAMPA measures passive passage across an artificial lipid membrane.
The species entered for a further data set is Homo sapiens. Put plainly: Selectivity index, ratio of IC50 for cSrc T338M mutant (unknown origin) to IC50 for cSrc T338M/S345C mutant (unknown origin).
Data set [18] is described as follows: Efflux ratio in human Caco2 cells incubated for 2 hrs. The class given is ADME, cell-based. The settings on record: Caco-2.
Data set [19] concerns Epidermal growth factor receptor (Homo sapiens), P00533 [L858R]. Description: Inhibition of EGFR L858R mutant (unknown origin) expressed in Sf9 cells assessed as enzyme inactivation constant by enzyme kinetics assay.

Values after ≈ are worked out from the molar mass of the structure shown. Active and inactive are the calls of the source. The calls are words filed in the database; no cut-off is given here.

Usually IC50 stands for the concentration that inhibits the measured activity by half. Lower therefore signals greater potency in that assay. The term GI50 denotes the concentration giving 50% growth inhibition. Read a high GI50 as lower sensitivity of the cells. On to `C=CC(=O)Nc1ccc2c(Nc3cc[nH]n3)nc(-c3ccccc3)nc2c1`, for which the half-inhibitory concentration (IC50) is 211 nM in [1]; 65 nM in data set [3]; 2200 nM in [4]; 43 nM in data set [6]; > 10000 nM in data set [7]; 1900 nM in data set [8]. For the same compound, the GI50 in [2] worked out at 1900 nM; with NCI-H1975 [5], 1600 nM; in the data set on A-431 it was 700 nM.

For `C=CC(=O)Nc1cccc(Oc2nc(Nc3n[nH]c4ccccc34)cc(N3CCN(C(C)=O)CC3)n2)c1`, the IC50 stood at 200 nM in [4], 3600 nM in data set [7] and 600 nM in [8]. Moreover, the figures for the GI50 (in data set [9]; in the data set on NCI-H661) were 25000 nM and > 30000 nM, respectively. Further, in the data set with NCI-H1975 [10], the “growth inhibition (GI)” value was “inactive”.

With `C=CC(=O)Nc1cc(Nc2cc[nH]n2)nc(-c2ccccc2)n1`, the IC50 came out at 300 nM in [4], 900 nM in data set [7] and 800 nM in [8]. The result in [11] was Active.

On to `CCC(=O)Nc1cccc(Oc2nc(Nc3n[nH]c4ccccc34)cc(N3CCN(C)CC3)n2)c1`, for which the IC50 was 8600 nM in data set [4], 260 nM in [6], > 10000 nM in [7] and > 10000 nM in [8]. Also, the GI50 was 30000 nM with NCI-H1975 [5], > 30000 nM in data set [9] and 22000 nM with NCI-H661.

For the compound `Cc1cc(Nc2cc(N3CCN(C)CC3)nc(Oc3cccc([N+](=O)[O-])c3)n2)n[nH]1`, the results for the half-inhibitory concentration (IC50) in [4], in data set [7] and in data set [8] were 600 nM, 3900 nM and 2300 nM, respectively. Also, the GI50 came to 6500 nM with NCI-H1975 [5], 8900 nM in [9] and 3500 nM with A-431.

As usually defined, the Ki is the dissociation constant of the complex between target and ligand, obtained from inhibition or displacement. High values mean a looser hold on the target, low ones a stronger hold on the target. Usually efflux ratio stands for the permeability from basolateral to apical divided by that in the opposite direction, in the common usage. For `C=CC(=O)Nc1cccc(Oc2nc(Nc3cc(C)[nH]n3)cc(N3CCN(C)CC3)n2)c1`, the Kinact in data set [12] came out at 0.116 min⁻¹; in data set [19], 0.017 min⁻¹. In addition, the outcome in [13] and in [11] was Active. For the same compound, the results for the Ki in [14] and in data set [15] were 0.64 nM and 70.2 nM, respectively. Moreover, the IC50 was 170 nM in data set [3]; 500 nM in data set [4]; 28 nM in data set [6]; > 10000 nM in data set [7]; 30 nM in [8]. Moreover, the figures for the GI50 (in the data set with NCI-H1975 [5]; in data set [9]; with A-431) were 20000 nM, 8200 nM and 5700 nM, respectively. Further, the solubility kinetic in data set [16] worked out at 432 µM (≈ 188 µg/mL). Besides, the permeability in data set [17] is 7%. Also, the Ratio IC50 in the data set listed under Homo sapiens came out at 5. Besides, the efflux ratio at 2 h in data set [18] came to 32.

Consider `C=CC(=O)Nc1cccc(Oc2nc(Nc3n[nH]c4ccc(Br)cc34)cc(N3CCN(C)CC3)n2)c1`, for which the IC50 in data set [4] turned out to be 300 nM; in [7] it was 2900 nM; in [8] it was 400 nM. Also, the GI50 with NCI-H1975 [5] amounted to 18000 nM; in [9] it was 8600 nM; with NCI-H661, 11000 nM.

For `C=CC(=O)Nc1cccc(Nc2nc(Nc3ccc(N4CCN(C(C)=O)CC4)cc3OC)ncc2C(F)(F)F)c1` [ROCILETINIB], the GI50 is 30 nM in the data set on NCI-H1975 [5], 30 nM in data set [9] and 1700 nM in the data set on NCI-H661.

Consider `C=CC(=O)Nc1cccc(-c2nc(Nc3n[nH]c4ccccc34)cc(N3CCN(C)CC3)n2)c1`, for which the IC50 in [4] was 4900 nM; in data set [7] it was > 10000 nM; in data set [8], 5000 nM. The GI50 in the data set with NCI-H1975 [5] came out at 11000 nM; in data set [9], 16000 nM; in the data set with NCI-H661, 12000 nM.

`C=CC(=O)Nc1cccc(Oc2nc(Nc3n[nH]c4ccccc34)cc(N3CCN(C)CC3)n2)c1`: the figures for the Kinact in data set [12] and in data set [19] were 0.137 min⁻¹ and 0.055 min⁻¹, respectively. In addition, the result in data set [13] and in [11] was Active. For the same compound, the figures for the Ki in data set [14] and in data set [15] were 0.32 nM and 833 nM, respectively. For the same compound, the IC50 in data set [4] was found to be 70 nM; in [6] it was 17 nM; in data set [7], 1700 nM; in data set [8], 500 nM. For the same compound, the results for the GI50 (in the data set with NCI-H1975 [5]; in [9]; with NCI-H661) were 9800 nM, 2500 nM and 8600 nM, respectively. The solubility kinetic in data set [16] came to 277 µM (≈ 130 µg/mL). In addition, the permeability in data set [17] is reported as 47%. In addition, in data set [18], the efflux ratio at 2 h amounted to 35.

`CCC(=O)Nc1cccc(Oc2nc(Nc3cc(C)[nH]n3)cc(N3CCN(C)CC3)n2)c1`: the IC50 was 254 nM in [3]; > 10000 nM in data set [4]; 349 nM in data set [6]; > 10000 nM in data set [7]; 1900 nM in data set [8]. The GI50 in the data set on NCI-H1975 [5] is > 30000 nM; in data set [9] it was > 30000 nM; in the data set with A-431, 8400 nM.

On to `CCC(=O)Nc1ccc2c(Nc3cc[nH]n3)nc(-c3ccccc3)nc2c1`, for which the IC50 is 336 nM in data set [1]; 60 nM in data set [3]; 2200 nM in data set [4]; 48 nM in data set [6]; > 10000 nM in data set [7]; 2100 nM in data set [8].

As for `Cc1cc(Nc2cc(N3CCN(C)CC3)nc(Oc3cccc(N)c3)n2)n[nH]1`, the IC50 in data set [4] was 4900 nM; in [7] it was > 10000 nM; in data set [8], > 10000 nM. Further, the figures for the GI50 (in the data set on NCI-H1975 [5]; in [9]; in the data set on A-431) were > 30000 nM, > 30000 nM and 20000 nM, respectively.

As for `CN(C)C/C=C/C(=O)Nc1cccc(Oc2nc(Nc3n[nH]c4ccccc34)cc(N3CCN(C)CC3)n2)c1`, the IC50 in data set [4] was found to be 700 nM; in [7] it was 6700 nM; in [8], 3600 nM. Further, the GI50 (in data set [9]; in the data set with NCI-H661) was > 30000 nM throughout. In the data set on NCI-H1975 [10], the “growth inhibition (GI)” value is “inactive”.
